This note sets out measurements from patent US20180318199A1, “Pharmaceutical Composition Having Anti-Aging Properties against High-Glucose” (TAIWAN LEADER BIOTECH CORP., priority 2017, published 2018).

Holding throughout (type): cell-based, human
In data set [1] the test system is HNDFs (CCD966SK). The data set is described as follows: MTT cytotoxicity of antcins against HNDFs. Conditions: for cytotoxicity to HNDFs (in words): MTT, 72 h, up to 20 μM; for IC50: MTT assay, 72 h, 1, 5, 10 and 20 μM tested, read-out: 50% inhibitory concentration (IC50) against HNDFs. Here is the method:
Please refer to FIG. 2A˜FIG. 2D, which are views showing HG-induced senescence affected by antcins in HNDFs. As shown in the figures, prior to an investigation, cytotoxicity of antcins against HNDFs is determined. In FIG. 2A, type of antcins are subjected to screen for potential anti-aging agents for skin aging. Names and chemical structures of the antcins are shown in the left and center column, respectively. The cytotoxic effects of antcins against HNDFs are investigated. Briefly, HNDFs are incubated with increasing concentrations (1, 5, 10 and 20 μM) of antcins including ANA, ANB, ANC, ANH, ANK and ANM for 72 h and the cell viability is determined by MTT assay. The 50% inhibitory concentrations (IC50) of each compound against HNDFs are shown in right column.
Cell viability is assessed by MTT colorimetric assay. Briefly, HNDFs (2×10^4cells/well) or HUVECs (5×10^4 cells/well) are seeded in a 24-well culture plate. After treatment with HG (15 and 30 mM) in the presence or absence of samples for 24-72 h, culture media is withdrawn and incubated with MTT (1 mg/mL) in fresh medium for 2 h. The MTT formazan crystals are dissolved in 400 μL of DMSO and the samples are measured at 570 nm […] using an ELISA microplate reader (Bio-Tek Instruments, Winooski, Vt.). The percentage of cell viability (%) is calculated as (A570 of treated cells/A570 of untreated cells)×100.
(In general: Tetrazolium dyes change colour on reduction, which living cells bring about.)

In data set [2] the test system is HNDFs. The data set is described as follows: Trypan blue exclusion cell proliferation assay in HNDFs. Conditions: antcins 10 μM + HG 30 mM, 72 h, trypan blue exclusion. How it is done:
To further clarify the effect of antcins, HG-induced reduction in cell proliferation is determined. In FIG. 2D, to determine the effect of antcins on cell proliferation efficacy, 5×10^4 cells/well of HNDFs are incubated with antcins in 6-well plates in the presence of HG (30 mM) for 72 h. Number of viable cells is quantified by the tryphan blue exclusion method. Results are expressed as mean±S.E.M of three indipendent expriments. Statistical significance is set at ^ϕP<0.05 as compared to NG vs. HG and *P<0.05 as compared to HG vs. samples. […] Therefore, the molecular mechanism underlying the protective effect of ANM is explored next.
Furthermore, in FIG. 3C, to determine the effect of ANM or NAC on cell proliferation, 5×10^4 cells/well of HNDFs are incubated in a 6-well plate with ANM (10 μM) or NAC (100 μM) in the presence of HG (30 mM) for 72 h. Number of viable cells is quantified by the tryphan blue exclusion method. Results expressed as mean±S.E.M of three independent experiments. Statistical significance is set at ^ϕP<0.05 as compared to NG vs. HG and *P<0.05 as compared to HG vs. samples.
Cell proliferation is evaluated using trypan blue exclusion assay as described previously with minor modification. Cells are plated into 6-well plates at a density of 5×10^4 cells/well. After incubation overnight, cells are treated with test samples in the presence or absence of HG for 24-72 h. Cells exposed to 0.2% Trypan blue are then counted in a hemocytometer, and cells stained with Trypan blue are excluded. Percentage of viable cells is calculated based on the ratio of viable cells to total cell population in each well. The proliferation rate is calculated based on the number of viable cells in HG or sample-treated groups versus the NG-treated group.

Data set [3] concerns HNDFs. Briefly: SA-β-gal senescence assay in HG-induced HNDFs. Conditions: for SA-β-gal positive cells: 10 μM compound + HG 30 mM, 72 h, HG alone 9.59-fold (FIG. 2B). How it is done:
Next, the protective effects of antcins on HG-induced HNDF senescence are examined. In FIG. 2B, cells were incubated with ANA (10 μM), ANH (10 μM) and ANM (10 μM) in the presence of HG (30 mM) for 72 h. Cellular senescence is determined by SA-β-gal activity. […] After cells are co-incubated with HG and antcins (ANA, ANH and ANM) for 72 h, senescence is measured by SA-β-gal assay.
Therefore, in order to examine whether the ROS inhibitory effect may be extended to suppress HG-induced senescence, HG-induced senescenece eliminated by ANM is examined. In FIG. 4B, HNDFs are incubated with ANM (10 μM) or NAC (100 μM) in the presence or absence of HG (30 mM) for 72 h. Cellular senescence is determined by SA-β-gal assay. […] As is shown, cells are co-incubated with HG and ANM or NAC for 72 h.
Senescence-associated β-galactosidase (SA-β-gal) activity is determined in formaldehyde-fixed histochemical staining kit according to the manufacturer's instructions (Cell Signaling Technology, Danvers, Calif.). Briefly, cells are grown in 6-well plates at a density of 5×10^4 cells/well, and incubated with HG or test samples for 48 h (HUVECs) or 72 h (HNDFs). After incubation, cells are stained with SA-β-gal staining solution at pH 6.0 overnight and then the development of blue staining is observed and photographed under a bright-field microscope (Motic Electric Group, Xiamen, P.R. China).

In data set [4] the test system is p16^INK4A, p21^CIP1 and SMP30. The data set is described as follows: Western blot of senescence-associated marker proteins in HNDFs. The settings on record: 10 μM + HG 30 mM, 72 h, western blot. How it is done: In addition, in FIG. 2C, HNDFs are incubated with ANA (10 μM), ANH (10 μM) and ANM (10 μM) in the presence of HG (30 mM) for 72 h. Senescence-associated marker proteins such as p16^INK4A, p21^CIP1 and SMP30 are determined by western blot analysis.
In order to assess the cellular and molecular basis of the ANM-mediated inhibition of senescence, the expression levels of senescence-associated marker proteins including, p16^INK4A and p21^CIP1 are examined. In FIG. 4D, to determine the effect of ANM on senescence-associated protein expression, HNDFs are incubated with ANM (10 μM) or NAC (100 μM) in the presence or absence of HG (30 mM) for 72 h. Immunoblotting analysis is used to determine the protein levels with corresponding specific antibodies.
(§1) Cells are lysed by either RIPA lysis buffer or nuclear and cytoplasmic extraction reagents (Thermo Fisher Scientific). Protein concentrations are determined by Bio-Rad protein assay reagent (Bio-Rad Laboratories, Hercules, Calif.). Equal amounts of protein samples (60 μg) are separated by 7-12% SDS-PAGE and the separated proteins are transferred onto polyvinylidene […] (PVDC) membrane overnight. The transferred protein membranes are blocked with 5% non-fat dried milk for 30 min, followed by incubation with specific primary antibodies overnight, and either horseradish peroxidase-conjugated goat anti-rabbit or anti-mouse antibodies for 2 h. The blots are detected using VL Chemi-Smart 3000 (Viogene Biotek, Sunnyvale, Calif.) with the enhanced chemiluminescence (ECL) western blotting reagent (Millipore, Billerica, Mass.).
A general note: In western blotting, separated proteins are transferred to a membrane and probed.

Data set [5] deals with p53 and FoxO1. Briefly: Western blot of p53 and FoxO1 acetylation/phosphorylation in HNDFs. The settings on record: pharmacological inhibitor in the presence of HG (FIG. 4G). Here is the method:
It is well known that p16^INK4A and p21^CIP1 are regulated by transcription factors p53 and FoxO1 followed by acetylation. […] In addition, p53 phosphorylation at Ser15 by their upstream kinases promotes transcriptional activation in response to DNA damage.
To further examine the phenomenon that HG-induced p53 activation is relayed by the p38 MAPK or JNK/SAPK cascade, cells are incubated with corresponding pharmacological inhibitors, SB203580, SP600125, PD98059 and LY294002 for p38MAPK, JNK/SAPK, ERK1/2 and P13K/AKT, respectively in the presence of HG.
The protein expression levels of SIRT-1, SIRT-6, p21^CIP1, SMP30, p53, FoxO and acetylation of p53 and FoxO1 are determined by western blot analysis.
as §1

Data set [6] deals with Nrf2. The data set is described as follows: ARE luciferase reporter assay (Nrf2 transcriptional activity) in HNDFs. The settings on record: inhibitor 30 μM 2 h, then ANM 10 μM + HG 30 mM 6 h. How it is done: Therefore, to determine whether ANM augments Nrf2 transcriptional activity, ARE-harboring luciferase reporter assay is used. In FIG. 5E, to determine the Nrf2 transcriptional activity, HNDFs are transiently transfected with ARE promoter construct using lipofectamine and incubated with ANM (10 μM) or NAC (100 μM) in the presence or absence of HG (30 mM) for 6 h. Cell lysates are mixed with luciferase reagents and quantified using an illuminometer. Relative ARE promoter activity is calculated by dividing the relative luciferace unit (RLU) of treated cells by RLU of untreated cells (NG).
Activation of P13K/AKT and mitogen-activated protein kinases (MAPKs), including ERK1/2, JNK/SAPK and p38 MAPK, facilitates Nrf2 transcriptional activation in a variety of human cell lines. […] To elucidate the upstream signaling events involved in ANM-induced Nrf2 transcriptional activity, cells are pre-incubated with pharmacological inhibitors of P13K/AKT (LY294002), ERK1/2 (PD98059), SAPK/JNK (SP600125) and p38MAPK (SB203580) for 2 h and treated with ANM for 6 h in the presence of HG. In FIG. 5G, HNDFs are pre-incubated with AKT, ERK1/2, JNK/SAPK and p38 MAPK inhibitors, including LY294002 (LY, 30 μM), PD98059 (PD, 30 μM), SP600125 (SP, 30 μM) and SB203580 (SB, 30 μM), respectively, for 2 h and then incubated with ANM (10 μM) in the presence of HG (30 mM) for 6 h. Cytoplasmic and nuclear fractions are prepared and subjected to western blot analysis. GAPDH and histone H3 are served as internal controls for the cytoplasmic and nuclear fraction, respectively.
ARE promoter activity is measured using a dual-luciferase reporter assay system (Promega, Madison, Wis.). […] Cells are then transfected with ARE plasmid (Qiagen, Hilden, Germany) using Lipofectamine 2000 (Invitrogen) and incubated for 36 h. […] The cell lysate is prepared and incubated with luciferase agents and the relative luminescence intensity is quantified using a spectrophotometer (Hidex Oy, Turku, Finland).

With `C=C(CC[C@@H](C)[C@H]1CC[C@H]2C3=C(C(=O)C[C@]12C)[C@@]1(C)CCC(=O)[C@@H](C)[C@@H]1CC3)C(C)C(=O)O` (stereo partly shown) [ANA, antcin A], the “cytotoxicity to HNDFs (in words)” value in data set [1] is “did not show significant cytotoxicity”. Also, in data set [2], the “cell proliferation (number of viable cells) vs HG group” value is “partially increase”. The SA-β-gal positive cells in data set [3] is 7.46 fold. Besides, the “HG-induced p16^INK4A and p21^CIP1 protein expression” value in data set [4] is given as “moderate inhibition”.

Turning to `C=C(CC[C@@H](C)[C@H]1CC[C@H]2C3=C(C(=O)C[C@]12C)[C@@]1(C)CCC(=O)[C@@H](C)[C@@H]1CC3=O)[C@H](C)C(=O)O` [ANB, antcin B], in data set [1], the IC50 came out at 7.11 µM and the “cytotoxicity to HNDFs (in words)” value is “strong cytotoxicity”.

In the case of `C=C(CC[C@@H](C)[C@H]1CC[C@H]2C3=C(C(=O)C[C@]12C)[C@@]1(C)CCC(=O)[C@@H](C)[C@@H]1C[C@@H]3O)[C@H](C)C(=O)O` [ANC, antcin C], the “cytotoxicity to HNDFs (in words)” value in data set [1] is reported as “did not show significant cytotoxicity”.

With `C=C(CCC(C)C1CCC2C3=C(C(=O)C(O)C21C)C1(C)CCC(O)C(C)C1CC3=O)C(C)C(=O)O` (stereo not shown) [ANH, antcin H], the “cytotoxicity to HNDFs (in words)” value in data set [1] is on record as “did not show significant cytotoxicity”. Further, the “cell proliferation (number of viable cells) vs HG group” value in data set [2] is “partially increase”. In addition, the SA-β-gal positive cells in data set [3] came to 8.13 fold. The “HG-induced p16^INK4A and p21^CIP1 protein expression” value in data set [4] is listed as “moderate inhibition”.

On to `C=C(CC[C@@H](C)[C@H]1CC[C@H]2C3=C(C(=O)C[C@]12C)[C@@]1(C)CC[C@@H](O)[C@](C)(O)[C@@H]1C[C@@H]3O)C(C)C(=O)O` (stereo partly shown) [ANK, antcin K], for which, in data set [1], the IC50 worked out at 2.89 µM and the “cytotoxicity to HNDFs (in words)” value is listed as “strong cytotoxicity”.

`COc1cccc(-c2cc(=O)c3ccccc3o2)c1N` [PD98059, reference compound]: the “HG-induced p16^INK4A expression and p53 phosphorylation, kinase inhibitors” value in data set [5] is listed as “fails to protect”. The “HG-induced SA-β-gal activity, kinase inhibitors” value in data set [3] (inhibitor 30 μM + HG 30 mM, 72 h (FIG. 4H)) is “does not affect”. In addition, in data set [6], the “ANM-induced ARE luciferase activity after inhibitor pretreatment” value is on record as “effectively suppresses”.
